{"source": "patent US20230114107A1", "about": "“COMBINATION ANTI-CANCER THERAPIES WITH INDUCERS OF IRON-DEPENDENT CELLULAR DISASSEMBLY” (Flagship Pioneering Innovations V, Inc., priority 2019, published 2023)", "key": {"[1]": {"system": "IRF reporter in THP1-Dual cells", "test": "IRF reporter activity in THP1-Dual monocytes co-cultured with treated A20 cells", "type": "cell-based, human", "conditions": "A20 cells treated 24 hours, co-culture 24 hours; vs DMSO; FIG. 6C", "description": "A20 B-cell leukemia cells were treated with either control (DMSO) or various doses of RSL3, for 24 hours prior to co-culture with THP1-Dual cells for an additional 24 hours. RSL3 was purchased from Selleckchem (Houston, Tex.) and dissolved in DMSO. Subsequently, the THP1 supernatants were assessed for NFKB or IRF reporter activity. A20 cells were acquired from ATCC and THP1-Dual cells acquired from InvivoGen (San Diego, Calif.). Both cell types were cultured in 96-well plates for the duration of the assay. 50,000 A20 cells were plated 24 hours prior to dosing with RSL3, with a final DMSO concentration of 0.5%. 24 hours post-treatment, THP1-Dual cells (25,000 cells/well) were added to the A20 cells. 24 hours later, 30 μl of supernatant was mixed with either 200 μl QuantiBlue (InvivoGen, San Diego, Calif.) or 50 μl QuantiLuc and absorbance or luminescence was recorded on a Molecular Devices plate reader."}, "[2]": {"system": "Jurkat T cell leukemia cells", "test": "Viability of Jurkat T cell leukemia cells after treatment", "type": "cell-based", "conditions": "various doses, 24 hours; FIG. 5A"}, "[3]": {"system": "A20 B-cell leukemia cells", "test": "Viability of A20 B-cell leukemia / lymphoma cells after treatment", "type": "cell-based", "conditions": "24 hours"}, "A375-VR cells": {"system": "A375-VR cells", "test": "CellTiter-Glo 2.0 viability of vemurafenib-resistant melanoma cells", "type": "cell-based, human", "conditions": "graded concentrations, 72 hours; vs non-resistant parental cell line; FIG. 16B", "description": "The effects of the ferroptosis inducer RSL3 on cancer cell lines with acquired resistance to standard of care therapeutics was assessed in vitro. Human melanoma cell lines with acquired resistance to BRAF inhibitors (A375-DR or A375-VR) were generated by propagating parental A375 cells in increasing concentrations of dabrafenib or vemurafenib (10 nM-100 μM) over 8 weeks. These resistant melanoma cell lines were further maintained in growth medium containing 5 μM dabrafenib or vemurafenib. BT-474 Clone 5, a human breast cancer cell line that is resistant to trastuzumab, was purchased from American Type Culture Collection (ATCC). 5,000 A375-DR, A375-VR, or BT-474 clone 5 cells were plated per well in flat-bottom 96 well plates and incubated overnight. Cells were then dosed with graded concentrations of RSL3 for 72 hours, and cellular viability was assessed using the CellTiter-Glo 2.0 Cell Viability Assay. The experiments were run in triplicate."}}, "note": "“Also recorded” adds a separate entry of the source."}
{"smiles": "COC(=O)c1ccc([C@H]2c3[nH]c4ccccc4c3C[C@H](C(=O)OC)N2C(=O)CCl)cc1", "note": "[RSL3]", "values": [{"measurement": "IRF signaling in THP1 monocytes", "setting": "[1]", "value": "elicited"}, {"measurement": "viability of Jurkat T cell leukemia cells", "setting": "[2]", "value": "negatively affected the viability"}, {"measurement": "viability of A20 lymphoma cells, dose dependence", "setting": "[3]; GPX4 inhibitor 0.002-10 μM, FIG. 10A, 11A, 12A", "value": "decreased viability of the cells in a dose dependent manner"}, {"measurement": "viability of A20 B cell leukemia cells", "setting": "[3]; various doses, FIG. 6A", "value": "negatively affected the viability"}, {"measurement": "sensitivity of A375-VR cells to RSL3-induced ferroptosis (cellular viability)", "setting": "A375-VR cells", "value": "sensitive to RSL3-induced ferroptosis; also recorded: more sensitive to RSL3-induced ferroptosis than the corresponding non-resistant parental cell line"}]}
